In patent US8748407B2 (The Research Foundation for the State University of New York, priority 2010, dated 2014):

How the values were obtained:
Type in all cases: cell-based
[1] = target: T1, GluN1a/2B (Rattus norvegicus, UniProt P35439+Q00960); assay: Whole-cell current recording, NMDA receptor GluN1a/2B
T1 construct: expressed in transfected cells; host or cells: HEK-293S
Source text: (§1) The original cDNAs in pBlueScript encoding rat GluA1, 2 and 3 AMPA receptors and GluK2 kainate receptor were kindly provided by Steve Heinemann. The GluA4 DNA plasmid was kindly provided by Peter Seeburg. The GluK1 plasmid was kindly provided by Geoffrey Swanson. The cDNAs of all three NMDA receptor subunits were gifts from John Woodward. All DNA plasmids were propagated using Escherichia coli host (DH5α) and purified using QIAGEN DNA purification kits.
(§2) All of the receptors were transiently expressed in HEK-293S cell. HEK-293S cells were maintained in Dulbecco's modified Eagle's medium (DMEM) supplemented with 10% fetal bovine serum and 1% penicillin in a 37° C., 5% CO2, humidified incubator. Receptors were transiently transfected by using calcium phosphate or lipofectamine 2000 (Invitrogen). The DNA plasmids encoding green fluorescent protein (GFP) and T-antigen (TAg) were cotransfected in HEK-293 S cells. […]
(§3) The procedure for whole-cell current recording to assay the inhibitory property of an RNA aptamer is known to those of skill in the art and has been previously described^7. […] The whole-cell current was recorded using an Axopatch-200B amplifier at a cutoff frequency of 2-20 kHz by a built-in, eight-pole Bessel filter and digitized at 5-50 kHz sampling frequency using a Digidata 1322A from Axon Instruments (Molecular Devices, Sunnyvale, Calif.). […]

[2] = target: T2, GluA3 (Rattus norvegicus, UniProt P19492); assay: Whole-cell current recording, GluA3
T2 construct: expressed in transfected cells; host or cells: HEK-293S
Source text: as §1, §2, §3

[3] = target: T3, GluA2Qflip (Rattus norvegicus, UniProt P19491); assay: Laser-pulse photolysis of caged glutamate, channel-opening kinetics
T3 construct: expressed in transfected cells; host or cells: HEK-293S
Source text: The use of the laser-pulse photolysis technique to measure the channel-opening kinetics has been described^7. […] In the laser-pulse photolysis measurement of channel opening, a single laser pulse at 355 nm with a pulse length of 8 ns was generated from a pulsed Q-switched Nd:YAG laser (Continuum, Santa Clara, Calif.). The pulse energy varied in the range of 200-800 μJ, measured at the end of an optical fiber (300 μm core diameter) into which the laser was coupled. […] The current amplitudes obtained from this calibration were compared with the amplitude from the laser measurement with reference to the dose-response relationship. These measurements also allowed us to monitor any damage to the receptors and/or the cell for successive laser experiments with the same cell^7.
To deliver AG56 to a HEK-293 cell, a “Ψ”-shaped flow device was used. […] In all experiments reported in this study, a 6-second preincubation flow protocol was used for full aptamer preincubation. […] The corrected current amplitude was used for data analysis.
The use of this technique allows the investigation of the effect of AG56 on the channel-opening kinetic mechanism of the GluA2Qflip receptors. Before describing how the mechanism of inhibition is elucidated, the kinetic characterization of channel-opening rate process is presented.
A represents the active form of the receptor, L, the ligand, ALn the closed-channel forms, and ALn the open-channel form, K1 the intrinsic dissociation constant of activating ligand and Φ the channel opening equilibrium constant (Φ^−1=kcl/kop). Based on this mechanism and the assumption that the ligand-binding rate was fast as compared to the channel opening, the observed rate constant of channel opening or kobs can be formulated as in equ. 2.
In equ. 2, kcl is the channel-closing rate constant or the lifetime of the channel, τ (τ=1/kcl), kop is the channel-opening rate constant, and n the number of the ligand molecules to bind to the receptor complex to open the channel (i.e., n=1-4). Imax is the maximum current amplitude, and It is the current amplitude at time t.
The mechanism of inhibition was characterized by studying the effect of an inhibitor such as AG56 on the channel-opening rate process^13,14. In general there are three ways in which an ion channel receptor can be inhibited. For instance, an inhibitor binds only to the open-channel state or conformation and then inhibits it (Mechanism 1, uncompetitive mechanism of inhibition or open-channel blockade). Alternatively, an inhibitor binds to both the closed- and open-channel states through a regulatory site (Mechanism 2, noncompetitive mechanism). The observed rate constant, kobs in the presence and absence of an inhibitor can be measured using equ. 3. […] 4 for mechanism 1, and equ. 5 for mechanism 2.
In deriving these equations, one binding site for inhibitor per receptor molecule is assumed. […] 4 or 5 to the overall rate, kobs, is negligible. Under this condition, the effect of the inhibitor on the kcl can be measured^13. Specifically, for both Mechanisms 1 and 2, the effects of the inhibitor on kcl are the same, and can be obtained by equ. 6, which can be derived from either equ. 4 or 5. From equ. 6, the equilibrium dissociation constant of the inhibitor from the open-channel state, KI, can be determined.
For Mechanism 2 or a noncompetitive mechanism of inhibition, the inhibitor will affect kop additionally (equ. 8), if KI<I, I being the molar concentration used to measure the KI value. Consequently the dissociation constant of the inhibitor for the closed-channel conformation can be further determined for Mechanism 2. It should be emphasized that the presence of an inhibitory effect of a noncompetitive inhibitor is due to the fact that the inhibitor must first bind to the closed-channel conformation, as illustrated in Mechanism 2, shown above. […]

[4] = 100 μM photolytically released glutamate

T3 sequence (P19491 22-883 isoform P19491-2): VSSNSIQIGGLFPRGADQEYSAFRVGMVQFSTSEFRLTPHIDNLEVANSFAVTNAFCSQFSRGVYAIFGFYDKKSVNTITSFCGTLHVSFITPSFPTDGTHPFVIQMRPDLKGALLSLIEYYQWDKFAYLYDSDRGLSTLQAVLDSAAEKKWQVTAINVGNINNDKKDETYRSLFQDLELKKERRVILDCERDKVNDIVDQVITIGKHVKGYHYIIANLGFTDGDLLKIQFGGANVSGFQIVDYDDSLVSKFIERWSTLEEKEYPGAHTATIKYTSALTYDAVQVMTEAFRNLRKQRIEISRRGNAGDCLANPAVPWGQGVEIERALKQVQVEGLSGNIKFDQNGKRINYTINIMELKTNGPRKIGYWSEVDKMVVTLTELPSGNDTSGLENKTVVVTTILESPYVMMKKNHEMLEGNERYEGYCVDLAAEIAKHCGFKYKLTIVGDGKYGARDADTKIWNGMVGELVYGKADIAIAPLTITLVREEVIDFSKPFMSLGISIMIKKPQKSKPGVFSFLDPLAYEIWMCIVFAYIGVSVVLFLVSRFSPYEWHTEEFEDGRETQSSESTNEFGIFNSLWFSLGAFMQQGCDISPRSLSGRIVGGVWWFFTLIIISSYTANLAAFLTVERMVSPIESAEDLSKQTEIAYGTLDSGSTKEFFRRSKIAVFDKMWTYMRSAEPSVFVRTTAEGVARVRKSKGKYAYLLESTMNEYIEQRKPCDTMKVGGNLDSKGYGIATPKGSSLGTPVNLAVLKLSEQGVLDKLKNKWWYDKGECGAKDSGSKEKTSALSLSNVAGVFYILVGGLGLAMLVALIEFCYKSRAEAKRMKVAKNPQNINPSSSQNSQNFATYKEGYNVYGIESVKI
T2 sequence (P19492 23-888): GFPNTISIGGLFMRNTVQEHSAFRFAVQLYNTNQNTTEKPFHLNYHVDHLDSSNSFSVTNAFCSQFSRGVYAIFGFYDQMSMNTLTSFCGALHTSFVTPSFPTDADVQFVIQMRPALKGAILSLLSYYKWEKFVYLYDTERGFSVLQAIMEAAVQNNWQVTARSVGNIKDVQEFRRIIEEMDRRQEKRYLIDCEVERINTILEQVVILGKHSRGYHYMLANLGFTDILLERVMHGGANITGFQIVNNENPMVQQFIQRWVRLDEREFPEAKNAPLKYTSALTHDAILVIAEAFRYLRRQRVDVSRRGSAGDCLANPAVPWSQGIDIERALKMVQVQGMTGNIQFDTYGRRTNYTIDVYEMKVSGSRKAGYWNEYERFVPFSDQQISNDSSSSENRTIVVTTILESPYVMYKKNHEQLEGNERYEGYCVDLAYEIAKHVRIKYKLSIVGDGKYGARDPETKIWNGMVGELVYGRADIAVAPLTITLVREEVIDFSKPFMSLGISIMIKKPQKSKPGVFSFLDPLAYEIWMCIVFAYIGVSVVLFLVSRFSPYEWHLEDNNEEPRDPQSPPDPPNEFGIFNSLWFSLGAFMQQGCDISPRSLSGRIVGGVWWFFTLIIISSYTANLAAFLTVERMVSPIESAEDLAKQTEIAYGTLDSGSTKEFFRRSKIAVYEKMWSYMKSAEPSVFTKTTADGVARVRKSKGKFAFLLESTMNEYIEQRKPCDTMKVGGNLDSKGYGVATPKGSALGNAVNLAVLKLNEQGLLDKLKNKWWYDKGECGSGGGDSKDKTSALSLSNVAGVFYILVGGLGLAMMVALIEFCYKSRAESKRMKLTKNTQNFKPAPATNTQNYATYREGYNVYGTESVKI
T1 sequence (Q00960 27-1482, other chains not shown): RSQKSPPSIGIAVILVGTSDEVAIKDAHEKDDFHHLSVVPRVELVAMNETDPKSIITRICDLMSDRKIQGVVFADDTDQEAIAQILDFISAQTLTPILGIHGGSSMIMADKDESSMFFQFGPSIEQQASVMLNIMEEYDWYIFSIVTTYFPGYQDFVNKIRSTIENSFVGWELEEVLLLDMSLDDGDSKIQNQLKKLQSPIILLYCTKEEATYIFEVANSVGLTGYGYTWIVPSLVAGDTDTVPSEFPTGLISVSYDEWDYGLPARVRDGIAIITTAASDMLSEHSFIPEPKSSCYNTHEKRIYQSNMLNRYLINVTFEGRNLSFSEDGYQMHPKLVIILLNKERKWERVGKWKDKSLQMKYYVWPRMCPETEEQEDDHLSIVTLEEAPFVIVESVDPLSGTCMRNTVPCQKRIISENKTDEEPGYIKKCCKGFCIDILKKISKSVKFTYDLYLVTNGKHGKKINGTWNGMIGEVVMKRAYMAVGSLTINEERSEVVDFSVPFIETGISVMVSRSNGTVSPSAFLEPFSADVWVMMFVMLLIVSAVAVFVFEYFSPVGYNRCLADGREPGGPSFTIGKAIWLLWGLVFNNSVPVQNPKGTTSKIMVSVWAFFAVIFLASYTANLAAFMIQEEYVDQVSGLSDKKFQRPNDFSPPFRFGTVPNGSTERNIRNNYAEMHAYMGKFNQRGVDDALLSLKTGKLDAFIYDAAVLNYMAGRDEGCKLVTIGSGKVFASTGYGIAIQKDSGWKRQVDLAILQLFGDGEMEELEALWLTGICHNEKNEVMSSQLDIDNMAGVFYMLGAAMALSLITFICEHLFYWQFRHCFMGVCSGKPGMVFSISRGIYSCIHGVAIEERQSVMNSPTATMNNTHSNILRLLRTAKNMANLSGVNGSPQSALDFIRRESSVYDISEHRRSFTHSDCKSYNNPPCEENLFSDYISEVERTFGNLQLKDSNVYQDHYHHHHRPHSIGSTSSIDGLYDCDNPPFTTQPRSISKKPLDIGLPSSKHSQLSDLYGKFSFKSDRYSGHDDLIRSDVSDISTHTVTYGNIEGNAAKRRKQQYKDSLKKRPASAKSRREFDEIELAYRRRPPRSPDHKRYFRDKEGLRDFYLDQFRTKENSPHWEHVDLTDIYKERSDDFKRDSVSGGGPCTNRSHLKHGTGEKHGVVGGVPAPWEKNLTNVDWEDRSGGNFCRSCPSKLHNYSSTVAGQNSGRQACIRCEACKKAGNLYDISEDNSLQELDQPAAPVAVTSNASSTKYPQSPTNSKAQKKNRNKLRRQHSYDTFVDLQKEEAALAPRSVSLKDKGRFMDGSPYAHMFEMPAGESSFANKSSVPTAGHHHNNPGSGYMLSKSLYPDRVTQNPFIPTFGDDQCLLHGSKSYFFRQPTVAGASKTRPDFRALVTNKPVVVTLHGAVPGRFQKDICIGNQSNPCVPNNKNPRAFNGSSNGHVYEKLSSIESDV

Substance: AG56: 56-nucleotide truncated version of AG1407, RNA aptamer (GGGAGAUUGUGAAGCGUAGGCUCGAGUUUGUCCCGCGAGCCAAAGAUUCCAGACCC; RNA, backbone not given here)
- effect on NMDA receptor channel [1]: did not affect
- inhibition of the closed-channel conformation [2]: no inhibitory effect
- inhibition of the open-channel conformation [2]: similarly inhibited the open-channel conformation
- effect on channel-closing rate (kcl) [3, 4]: inhibited the rate of channel closing
- effect on current amplitude [3, 4]: did not affect the current amplitude
- kobs value, which reflected kcl ([3]; 100 μM photolytically released glutamate, +0.75 μM AG56 (control 2,200)): 1,600 s^−1
- kobs value, which reflected kop ([3]; 340 μM photolytically released glutamate, 0.75 μM AG56 (absence 5,128)): 4,405 s^−1
- effect on current amplitude ([3]; higher glutamate concentration): reduced the current amplitude
- effect on channel-opening rate constant (kop) ([3]; increased glutamate concentration): did not inhibit kop
